Measurements as given in paper PMC9694159 (International Journal of Molecular Sciences, 2022).
Where “and” joins values, the source holds several entries; their conditions need not be identical. Identical values can stand only once. Like-named read-outs stand apart in the source and are kept apart here. One block for each compound: values may come before it.

Experiments:
[1] = molecular target: T1, human serum albumin (HSA) (Homo sapiens, UniProt P02768); test: UV-Vis spectroscopic studies: HSA-induced increase in the absorbance of Heme site ligands; assay type: binding; conditions: for Higher binding constant by Hyperquad evaluation of UV-Vis data: compared with quenching studies and Scatchard plot evaluation; for Kd at 5 μM: human, human serum albumin (HSA) solution in PBS
T1 construct: purchased Merck (Darmstadt, Germany) A1653
T1 sequence (P02768 25-609): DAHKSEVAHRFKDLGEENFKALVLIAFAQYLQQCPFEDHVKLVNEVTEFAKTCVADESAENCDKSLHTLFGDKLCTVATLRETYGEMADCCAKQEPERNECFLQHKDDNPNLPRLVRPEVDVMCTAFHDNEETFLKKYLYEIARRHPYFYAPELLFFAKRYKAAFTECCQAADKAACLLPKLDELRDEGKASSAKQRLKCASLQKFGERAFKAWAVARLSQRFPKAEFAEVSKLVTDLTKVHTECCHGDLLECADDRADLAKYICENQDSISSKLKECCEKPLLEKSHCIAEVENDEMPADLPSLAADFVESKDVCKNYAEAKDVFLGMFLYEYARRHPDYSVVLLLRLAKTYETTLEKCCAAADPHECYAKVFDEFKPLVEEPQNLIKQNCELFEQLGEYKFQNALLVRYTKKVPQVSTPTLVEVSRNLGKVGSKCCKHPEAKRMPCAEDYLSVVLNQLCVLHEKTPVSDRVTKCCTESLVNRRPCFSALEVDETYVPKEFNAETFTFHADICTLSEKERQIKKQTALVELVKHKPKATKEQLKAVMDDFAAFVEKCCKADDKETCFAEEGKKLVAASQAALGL
Experimental: UV-Vis spectra were recorded in PBS (pH 7.4) at 25 °C, employing a Jasco V730 UV-Vis spectrophotometer (Tokyo, Japan). Absorption spectra of Heme site ligands (5.0 μM each) have been recorded without and with increasing concentrations of HSA (0.0, 0.2, 0.5, 0.7, 1.0, 1.5, 2.0, 5.0, 10, and 15 μM). Binding constants (K) of ligand–albumin complexes were determined based on the HSA-induced increase in their absorbance (at 480 nm for BIL, at 390 nm for BVD, at 400 nm for HEM, and at 460 nm for MO). […] Binding constants (K; unit: L/mol) were calculated with linear and non-linear fitting, using the Scatchard equation [58] and the Hyperquad2006 software, respectively. The Scatchard equation for 1:1 binding model follows:(1) (A−A0)/[HSA]0=(Aligand−HSA−A0)×K−(A−A0)×K where A0 and A are the absorbance values of the ligand in the absence and presence of HSA, respectively; Aligand-HSA is the absorbance when each ligand molecule bound to HSA, and [HSA] is the concentration of albumin (unit: mol/L).
The following equations are implemented in the Hyperquad program code: (2) aLIGAND+bHSA ↔LIGANDaHSAb (3) βab=[LIGANDaHSAb]/[LIGAND]^a[HSA]^b where a and b indicate the stoichiometry associated with the equilibria in the solution. All equilibrium constants are defined as overall association constants (β):(4) LIGAND+HSA ↔LIGAND HSA; β1=[LIGAND HSA]/[LIGAND][HSA] (5) 2 LIGAND+HSA ↔LIGAND2 HSA; β2=[LIGAND2HSA]/[LIGAND]^2[HSA] (6) aLIGAND+HSA ↔LIGANDaHSA; βa=[LIGANDaHSA]/[LIGAND]^a[HSA]
The stepwise association constants (K) are defined by β:(7) β1=K1; β2=K1×K2; βa=K1×K2×…×Ka
During data evaluation the stoichiometry and association constants of the ligand binding process were calculated using the lowest standard deviation model.

[2] = molecular target: T1, human serum albumin (HSA); test: Fluorescence quenching of HSA by Heme site ligands; assay type: binding; conditions: HSA 2 μM; for Fluorescence Quenching Stern–Volmer Plot logKSV: KSV unit L/mol; for Kd / Fluorescence Quenching Hyperquad logK: K unit L/mol; for Kd: read-out: Fluorescence Quenching Hyperquad logK (converted)
Experimental: Fluorescence spectra were recorded in PBS (pH 7.4) at 25 °C, employing a Hitachi F-4500 fluorometer (Tokyo, Japan). Binding constants of BIL, BVD, HEM, and MO were also determined based on fluorescence quenching studies (λex = 295 nm). Emission spectra of HSA (2.0 μM) were recorded in the absence and presence of the increasing concentrations of Heme site ligands (0.0, 0.5, 1.0, 2.0, 3.0, 5.0, 7.0, 10, and 15 μM). Before the evaluation of emission intensity data at 340 nm, the inner-filter effect of ligand molecules was corrected using the following equation [60, 61]:(8) Icor=Iobs×e^(Aex+Aem)/2 where Icor and Iobs are the corrected and observed fluorescence emission intensities, respectively; Aex and Aem are the absorbance values of Heme site ligands at 295 and 340 nm, respectively.

WAR–HSA complex = molecular target: T2, WAR–HSA complex (Homo sapiens, UniProt P02768); test: Effects of ligands on the fluorescence emission signal of WAR–HSA complex; assay type: binding; conditions: WAR 1 μM, HSA 3.5 μM, PBS pH 7.4, λex 317 nm; for Effect on the fluorescence emission signal of WAR (WAR–HSA complex): ligand 0–10 μM, λem 379 nm
T2 construct: purchased Merck (Darmstadt, Germany) A1653
T2 sequence (P02768 25-609, one chain of several): as the sequence (P02768 25-609) above

WAR–HSA interaction [3] = molecular target: T3, WAR–HSA interaction (Homo sapiens, UniProt P02768); test: Ultrafiltration: filtered fraction of WAR in the presence of HSA and ligands; assay type: binding; conditions: WAR 1.0 μM, HSA 5.0 μM
T3 construct: purchased Merck (Darmstadt, Germany) A1653
T3 sequence (P02768 25-609): as above
Experimental: Amicon Ultra-0.5 centrifugal filters (Merck, Darmstadt, Germany) with 30 kDa molecular weight cut-off (MWCO) value were applied. […] Before ultrafiltration, filter units were washed once with water (500 μL) then once with PBS (500 μL). […] A 500 μL aliquot of samples was transferred to the filter and centrifuged for 10 min at 7500 g and 25 °C (fixed angle rotor).
(§1) Chromatographic data were evaluated employing ChromNAV2 software (Jasco, Tokyo, Japan). […] Briefly, samples (20 μL) were driven through a guard column (SecurityGuard C18, 4.0 × 3.0 mm; Phenomenex, Torrance, CA, USA) linked to a Nova-Pak C18 analytical column (150 × 3.9 mm, 4 μm; Waters, Milford, MA, USA). The isocratic elution was performed at room temperature with 1.0 mL/min flow rate applying sodium phosphate buffer (20 mM, pH 7.0), methanol, and acetonitrile (70:25:5 v/v%) as the mobile phase.

WAR–HSA interaction [4] = molecular target: T3, WAR–HSA interaction; test: Ultracentrifugation: WAR in the supernatant in the presence of HSA and BIL or MO; assay type: binding; conditions: WAR 1.0 μM, HSA 3.0 μM, ligand 5 or 20 μM, PBS pH 7.4; 170,000× g, 16 h, 20 °C; HPLC-FLD
Experimental: With the optimal conditions of ultracentrifugation, we can sediment the albumin fraction of a solution without the disruption of ligand–HSA interactions. Consequently, the free fraction of a ligand can be quantified from the supernatant. […] In 11 × 34 mm PC tubes (Beckman Coulter, Brea, CA, USA), a 900 μL aliquot of samples was centrifuged for 16 h at 170,000× g and 20 °C applying a Beckman Coulter Optima MAX-XP tabletop ultracentrifuge (with MLA-130 fixed-angle rotor). Then a 200 μL volume of the supernatant was carefully removed and directly analyzed by HPLC-FLD (see in Section 3.6).
as §1, with “We applied an integrated HPLC system (Jasco, Tokyo, Japan) built up from an autosampler (AS-4050), a binary pump (PU-4180), and a fluorescence detector (FP-920). Chromatographic” for “Chromatographic”

HSA = conditions: cited from earlier work
[5] = cited from earlier work
[6] = linear fitting, K unit L/mol, ligand 5 μM, HSA 0–15 μM, PBS pH 7.4, 25 °C, mean ± SEM, read-out: UV-Vis Spectroscopy Scatchard Plot logK (converted)
[7] = non-linear fitting, K unit L/mol, ligand 5 μM, HSA 0–15 μM, PBS pH 7.4, 25 °C, mean ± SEM, read-out: UV-Vis Spectroscopy Hyperquad logK (converted)
[8] = linear fitting, whole ligand range 0–15 μM, PBS pH 7.4, λex 295 nm, λem 340 nm, mean ± SEM
[9] = non-linear fitting, whole ligand range 0–15 μM, PBS pH 7.4, mean ± SEM
[10] = ligand 0–20 μM, PBS pH 7.4, 30 kDa MWCO, HPLC-FLD
[11] = evaluated in the 0.5–3 µM concentration range, PBS pH 7.4
[12] = evaluated in the 3–15 µM concentration range, PBS pH 7.4

- Higher binding constant by Hyperquad evaluation of UV-Vis data [1]: approximately 100 fold
- Kd [1, 6]: 1.48 µM
- Kd [1, 7]: 0.0295 µM
- Fluorescence Quenching Stern–Volmer Plot logKSV [2, 8]: 5.26 ± 0.01
- Kd [2, 9]: 4.47 µM
- Effect on the fluorescence emission signal of WAR (WAR–HSA complex) (WAR–HSA complex): strongly reduced
- Effect on the filtered fraction of WAR (ultrafiltration) (WAR–HSA interaction [3]; [10]): strongly increased
- Effect on albumin binding of WAR (ultrafiltration) (WAR–HSA interaction [3]; ligand 5 μM): disrupted
- Effect on albumin binding of WAR (ultrafiltration) (WAR–HSA interaction [3]; ligand 20 μM): almost completely abolished
- Effect on the unbound fraction of WAR in the supernatant (ultracentrifugation) (WAR–HSA interaction [4]): significantly increased
Compound: C=CC1=C(C)/C(=C/c2[nH]c(Cc3[nH]c(/C=C4\NC(=O)C(C)=C4C=C)c(C)c3CCC(=O)O)c(CCC(=O)O)c2C)NC1=O [BIL, bilirubin]

- Kd at 5 μM ([1]; pH 7.4, linear fitting, K unit L/mol, ligand 5 μM, HSA 0–15 μM, PBS pH 7.4, 25 °C, mean ± SEM, read-out: UV-Vis Spectroscopy Scatchard Plot logK (converted)): 64.6 µM
- Kd at 5 μM ([1]; pH 7.4, non-linear fitting, K unit L/mol, ligand 5 μM, HSA 0–15 μM, PBS pH 7.4, 25 °C, mean ± SEM, read-out: UV-Vis Spectroscopy Hyperquad logK (converted)): 18.2 µM
- Kd ([2]; human, human serum albumin (HSA) solution in PBS, non-linear fitting, whole ligand range 0–15 μM, PBS pH 7.4, mean ± SEM): 14.8 µM
- Fluorescence Quenching Stern–Volmer Plot logKSV [2, 8]: 4.76 ± 0.02
- Effect on the fluorescence emission signal of WAR (WAR–HSA complex) (WAR–HSA complex): strongly reduced
- Effect on the filtered fraction of WAR (ultrafiltration) (WAR–HSA interaction [3]; ligand 1 μM): significantly reduced
- Effect on the filtered fraction of WAR (ultrafiltration) (WAR–HSA interaction [3]; ligand 2–20 μM): further gradual decrease
- Effect on the unbound fraction of WAR in the supernatant (ultracentrifugation) (WAR–HSA interaction [4]): considerably decreased
Compound: CN(C)c1ccc(/N=N/c2ccc(S(=O)(=O)O)cc2)cc1 [MO, methyl orange]
- logK of the MO–HSA complex (HSA; K in L/mol): 5.4
- binding constant of the MO–HSA complex (HSA): 230000 L/mol

- Increase in the emission intensity at 379 nm (WAR–HSA complex) (WAR–HSA complex; fatty acid 0–10 μM): ~2.5 fold
- Effect on the filtered fraction of WAR (ultrafiltration) (WAR–HSA interaction [3]; [10]): decreased
Compound: CCCCCCCCCCCCCCCCCC(=O)O [stearic acid]

- Higher binding constant by Hyperquad evaluation of UV-Vis data [1]: approximately 100 fold
- UV-Vis Spectroscopy Scatchard Plot logK ([1]; linear fitting, K unit L/mol, ligand 5 μM, HSA 0–15 μM, PBS pH 7.4, 25 °C, mean ± SEM): 5.74 ± 0.04
- UV-Vis Spectroscopy Hyperquad logK ([1]; non-linear fitting, K unit L/mol, ligand 5 μM, HSA 0–15 μM, PBS pH 7.4, 25 °C, mean ± SEM): 7.4 and 7.35 ± 0.03
- Fluorescence Quenching Hyperquad logK [2, 11]: 5.34 ± 0.01
- Fluorescence Quenching Stern–Volmer Plot logKSV [2, 11]: 5.23 ± 0.02
- Fluorescence Quenching Hyperquad logK [2, 12]: 5.53 ± 0.02
- Fluorescence Quenching Stern–Volmer Plot logKSV [2, 12]: 5.55 ± 0.03
- Fluorescence Quenching Stern–Volmer Plot logKSV [2, 8]: 5.54 ± 0.02
- Fluorescence Quenching Hyperquad logK [2, 9]: 5.49 ± 0.02
- Effect on the fluorescence emission signal of WAR (WAR–HSA complex) (WAR–HSA complex): strongly reduced
- Effect on the filtered fraction of WAR (ultrafiltration) (WAR–HSA interaction [3]; ligand 1–5 μM): decreased
- Effect on the filtered fraction of WAR (ultrafiltration) (WAR–HSA interaction [3]; ligand 10 and 20 μM): gradual elevation
Compound: hemin

More lines, now with the values behind:

Compound: C=CC1=C(C)/C(=C/C2=NC(=C\c3[nH]c(/C=C4\NC(=O)C(C)=C4C=C)c(C)c3CCC(=O)O)/C(CCC(=O)O)=C2C)NC1=O [BVD, biliverdin]
- Kd [1, 6]: 11 µM
- Kd [1, 7]: 2.82 µM
- Fluorescence Quenching Stern–Volmer Plot logKSV [2, 8]: 5.37 ± 0.03
- Kd [2, 9]: 3.55 µM
- Effect on the fluorescence emission signal of WAR (WAR–HSA complex) (WAR–HSA complex): strongly reduced
- logK of the BVD–HSA complex (HSA; K in L/mol): ≈ 6
- binding constant of the BVD–HSA complex (HSA): approximately 10^6 L/mol

Compound: CC(=O)CC(c1ccccc1)c1c(O)c2ccccc2oc1=O (stereo not drawn) [WAR, warfarin]
- binding constant (K) of WAR–HSA complex (HSA; spectroscopic, affinity chromatography and ultracentrifugation experiments): approximately 2 × 10^5 L/mol
- plasma protein binding [5]: ≈ 99%

Compound: C=CC1=C(C)c2cc3[n-]c(cc4[n-]c(cc5nc(cc1n2)C(C)=C5C=C)c(C)c4CCC(=O)O)c(CCC(=O)O)c3C.[Fe+2] [heme]
- Effect on the binding affinity of certain Site I ligands toward HSA (HSA; Site I ligands: abacavir, efavirenz, zidovudine, furosemide, indomethacin, phenylbutazone): strongly decrease
- Effect on the binding constant of the WAR–HSA complex (HSA): only slightly reduced
